Measurements taken from publication PMC12679539, “Synthesis and evaluation of nitroheterocyclic aromatic adamantane amides with trypanocidal activity. Part II” (RSC Medicinal Chemistry, 2025).

test: Cytotoxicity on THP-1-derived macrophages (MTT assay); type: cell-based; settings: human, THP-1-derived macrophages (PMA-differentiated), value or interval
Description: The THP-1 cell line, a human leukemia line (ATCC® TIB-202™), was cultured in RPMI-1640 medium supplemented with 10% heat-inactivated fetal bovine serum (FBS), 2 mM. L-Glutamine, 100 IU mL^−1 penicillin/streptomycin, and 20 mM HEPES. The cells were maintained in a humidified incubator at 37 °C with 5% CO2. Subculturing was performed every three days, using 20 mL of media at a concentration of 2 × 10^5 cells per mL in a T75 flask. All cell culture reagents were purchased from Lonza Bioscience (Morrisville, NC).
The cytotoxicity of the compounds on THP-1-derived macrophages was evaluated using the colorimetric MTT assay (3-(4,5-dimethylthiazol-2-yl)-2,5-diphenyltetrazolium bromide), as described in Magoulas et al. (2021).[28] THP-1 cells were suspended in complete RPMI medium at a density of 1 × 10^6 cells per mL, and 100 μL of this suspension was seeded into each well of a 96-well plate. The cells were differentiated into macrophages by adding 40 ng mL^−1 of phorbol-myristate 13-acetate (PMA, Sigma, Saint Louis, MI, USA) for 24 hours, followed by replacement with fresh medium for an additional 24 hours. Subsequently, the cells were incubated with 100 μL of various compounds, diluted in complete RPMI medium, at concentrations ranging from 100 to 12.5 μM. Each condition was tested in triplicate. After 72 hours of incubation at 37 °C with 5% CO2, the medium was removed, and 200 μL of a 0.5 mg mL^−1 MTT solution, diluted in RPMI, was added to each well. The plates were incubated for an additional 4 hours. Following this incubation, 160 μL of the medium was removed and replaced with 160 μL of 2-propanol. Absorbance was measured at 570 nm using a Synergy 2 Multi-Mode Reader (Biotek, Winooski, VT, USA). Cytotoxicity was determined by presenting the CC50 (the concentration of the drug that reduces cell viability by 50%) interval or by calculating the CC50 value through non-linear regression analysis using GraphPad Prism version 8.1.1 for Windows (GraphPad Software, San Diego, CA, USA). The results represent the average of at least three independent experiments.

`O=C(Cc1ccc(C23CC4CC(CC(C4)C2)C3)cc1)NCCn1cnc([N+](=O)[O-])n1` [6b, 2-[4-(1-Adamantyl)phenyl]-N-[2-(3-nitro-1H-1,2,4-triazol-1-yl)ethyl]acetamide] and `O=C(Cc1ccc(C23CC4CC(CC(C4)C2)C3)cc1)NCCCn1cnc([N+](=O)[O-])n1` [6e, 2-[4-(1-Adamantyl)phenyl]-N-[3-(3-nitro-1H-1,2,4-triazol-1-yl)propyl]acetamide] fall in the same range of CC50 at 72 h: 50 to 100 µM for the first, 50 to 100 µM for the second.

`O=C(CCc1ccc(C23CC4CC(CC(C4)C2)C3)cc1)NCCn1cnc([N+](=O)[O-])n1` [6c, 3-[4-(1-Adamantyl)phenyl]-N-[2-(3-nitro-1H-1,2,4-triazol-1-yl)ethyl]propanamide] showed a CC50 at 72 h of over 100 µM.
